Each compound was assayed against recombinant His-tag Wip1(2-420) protein (amino acids #2-420) (Homo sapiens (Human), UniProt O15297) (assay: Wip1(2-420) phosphatase enzyme FDP assay). Conditions: fluorescein diphosphate (FDP) substrate, RT 2 hours, fluorescence Ex485/Em535; read-out: WIP1 (Truncated 2-420) FDP Assay: IC50.
Assay type: biochemical
Experimental: The Human Wip1 (2-420, aa 2-420) or Wip1 full length (aa 1-605) DNA sequence was codon optimized and synthesized by Genscript for insect cell expression. The open reading frame of Wip1(2-420) with a N-terminal-His6 affinity tag followed by a TEV cleavage site was subcloned sites into the pFastBac1 expression vector. The recombinant bacmid DNA was transfected in Sf9 insect cells for baculovirus production. After 72 hours infection, the Sf9 cells were harvested by centrifugation and resuspended in lysis buffer containing 50 mM Tris/HCl, pH 8.0, 500 mM NaCl, 20% glycerol, Benzonase 0.5% CHAPS and Roche cOmplete™ EDTA free protease inhibitors. Cells were disrupted with microfluidizer and the debris was removed by centrifugation at 185,000 g for 1 hour. The supernatant was subjected to HisTrap FF for affinity purification. Proteins were eluted with a linear gradient of 0-500 mM imidazole in HisTrap buffer containing 50 mM Tris/HCl, pH 8.0, 500 mM NaCl and 20% glycerol, 0.05% CHAPS. The eluted protein was dialyzed against dialysis buffer (20 mM MES, 100 mM NaCl, 20% glycerol, 0.5 mM TCEP, 0.05% CHAPS) followed purification via HiTrap SP HP column. The protein was eluted with a gradient of 100 mM-2 M NaCl in dialysis buffer. His6-[…] was finally concentrated and loaded onto a size-exclusion column (NiLoad 16/600 Superdex 200 pg, GE Healthcare) pre-equilibrated with 50 mM MOPS (pH 7.5), 200 mM NaCl, 20% glycerol, 1 mM TCEP, 0.05% CHAPS and 0.1 mM EGTA. The peak fractions containing purified Nis6-Wip1(2-420) were pooled and concentrated to 1.0 mg/mL and flash frozen at −80° C.
Wip1 Length and Wip1(2-420) Phosphatase Enzyme FDP Assays.
Test compounds (252 mM stock in DMSO) were diluted 3 folds in series in DMSO and 1.2 μl per well were added into 384-well polypropylene black plates (Nunc). Twelve μl per well of Assay Buffer (100 mM NaCl, 50 mM MOPS, pH 7.5, 0.8 mM CHAPS, 0.1 mM EGTA, 30 mM MgCl2, 0.3 mM TCEP, 0.2 mg/mL BSA) was added followed by […] per well of 50.4 nM recombinant His-tag Wip1 full length protein (amino acids #1-605) or recombinant His-tag Wip1(2-420) protein (amino acids #2-420) in Assay Buffer and the plate was incubated at RT (22° C.) for 5 min. Ten mM of fluorescein diphosphate (FDP) in DMSO was diluted to […] in Assay Buffer and […] per well was added to the plate and incubated at RT (22° C.) for 2 hours. […] per well of 64.1 mM EDTA in water were added to stop the enzyme reaction. The plate was centrifuged at 1,200 rpm (Eppendorf 5810R Plate centrifuge) for 1 minute and fluorescence intensity (Ex485/Em535) was measured on Perkin Elmer Victor Reader. EC50 values were calculated using either Prism (GraphPad) or ActivityBase software (IDBS), The IC50 results are provided in Table M.

Sequence of recombinant His-tag Wip1(2-420) protein (amino acids #2-420) (O15297 2-420): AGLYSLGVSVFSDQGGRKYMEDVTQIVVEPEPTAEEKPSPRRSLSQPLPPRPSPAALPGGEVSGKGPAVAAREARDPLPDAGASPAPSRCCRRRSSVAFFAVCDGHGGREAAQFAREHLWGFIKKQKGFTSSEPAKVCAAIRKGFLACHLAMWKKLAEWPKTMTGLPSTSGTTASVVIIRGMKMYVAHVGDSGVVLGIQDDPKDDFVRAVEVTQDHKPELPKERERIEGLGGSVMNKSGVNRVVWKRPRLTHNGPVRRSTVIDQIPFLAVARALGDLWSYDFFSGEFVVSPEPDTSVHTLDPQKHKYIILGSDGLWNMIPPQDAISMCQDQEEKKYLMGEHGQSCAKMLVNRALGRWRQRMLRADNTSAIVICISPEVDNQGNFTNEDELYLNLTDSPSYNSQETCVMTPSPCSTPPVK

Row | Compound | IC50 [nM]
1 | COc1ccc(NC(=O)[C@H](CC2CCCC2)NC(=O)c2ccc([C@H](C)Nc3cc(Cl)cnc3C)s2)cn1 [Compound 276, (2S)-2-({5-[(1S)-1-[(5-chloro-2-methylpyridin-3-yl)amino]ethyl]thiophen-2-yl}formamido)-3-cyclopentyl-N-(6-methoxypyridin-3-yl)propanamide] | 5
2 | Cc1ncc(Cl)cc1N[C@H](Cc1ccc(F)cc1)c1ccc(C(=O)N[C@@H](CC2CCCC2)C(=O)NC2CC2)s1 [Compound 222, (2S)-2-({5-[(1R)-1-[(5-chloro-2-methylpyridin-3-yl)amino]-2-(4-fluorophenyl)ethyl]thiophen-2-yl}formamido)-3-cyclopentyl-N-cyclopropylpropanamide] | 68
3 | Cc1ncc(Cl)cc1N[C@@H](C)c1ccc(C(=O)N[C@@H](CC2CCCC2)C(=O)NC2CCc3ncccc3C2)s1 (stereo partly drawn) [Compound 169, (2S)-2-({5-[(1S)-1-[(5-chloro-2-methylpyridin-3-yl)amino]ethyl]thiophen-2-yl}formamido)-3-cyclopentyl-N-(5,6,7,8-tetrahydroquinolin-6-yl)propanamide] | 9
4 | Cc1cc(NC(=O)[C@H](CCC(C)(C)C)NC(=O)c2ccc([C@H](C)Nc3cc(Cl)cnc3C)s2)ccn1 [Compound 157, (2S)-2-({5-[(1S)-1-[(5-chloro-2-methylpyridin-3-yl)amino]ethyl]thiophen-2-yl}formamido)-5,5-dimethyl-N-(2-methylpyridin-4-yl)hexanamide] | 9
5 | Cc1ncc(Cl)cc1N[C@@H](C)c1ccc(C(=O)N[C@@H](CC2CCCC2)C(=O)Nc2cnn(C(C)(C)C)c2)s1 [Compound 149, (2S)-N-(1-tert-butyl-1H-pyrazol-4-yl)-2-({5-[(1S)-1-[(5-chloro-2-methylpyridin-3-yl)amino]ethyl]thiophen-2-yl}formamido)-3-cyclopentylpropanamide] | 6
6 | CC(Nc1cc(Cl)cnc1C(N)=O)c1ccc(C(=O)N[C@@H](CC2CC3CC3C2)C(=O)Nc2cnn(C)c2)s1 (stereo partly drawn) [Compound 146, 3-{[1-(5-{[(1S)-2-{bicyclo[3.1.0]hexan-3-yl}-1-[(1-methyl-1H-pyrazol-4-yl)carbamoyl]ethyl]carbamoyl}thiophen-2-yl)ethyl]amino}-5-chloropyridine-2-carboxamide] | 15
7 | COCCn1cc(NC(=O)[C@H](CC2CCCC2)NC(=O)c2ccc([C@H](C)Nc3cc(Cl)cnc3C)s2)cn1 [Compound 220, (2S)-2-({5-[(1S)-1-[(5-chloro-2-methylpyridin-3-yl)amino]ethyl]thiophen-2-yl}formamido)-3-cyclopentyl-N-[1-(2-methoxyethyl)-1H-pyrazol-4-yl]propanamide] | 6
8 | C[C@@H](Nc1cc(Cl)cnc1C(N)=O)c1ccc(C(=O)N[C@@H](CC2CCCC2)C(=O)Nc2cnn(C)c2)s1 [Compound 137, 5-chloro-3-{[(1R)-1-(5-{[(1S)-2-cyclopentyl-1-[(1-methyl-1H-pyrazol-4-yl)carbamoyl]ethyl]carbamoyl}thiophen-2-yl)ethyl]amino}pyridine-2-carboxamide] | 54
9 | Cc1ncc(Cl)cc1N[C@H](C)c1ccc(C(=O)N[C@@H](CC2CCCC2)C(=O)N[C@@H]2CC2(F)F)s1 [Compound 22, (2S)-2-({5-[(1R)-1-[(5-chloro-2-methylpyridin-3-yl)amino]ethyl]thiophen-2-yl}formamido)-3-cyclopentyl-N-[(1R)-2,2-difluorocyclopropyl]propanamide] | 314
10 | Cc1ncc(Cl)cc1N[C@@H](C)c1ccc(C(=O)N[C@@H](CC2CCCC2)C(=O)NC2CC3(COC3)C2)s1 [Compound 237, (2S)-2-({5-[(1S)-1-[(5-chloro-2-methylpyridin-3-yl)amino]ethyl]thiophen-2-yl}formamido)-3-cyclopentyl-N-{2-oxaspiro[3.3]heptan-6-yl}propanamide] | 8
11 | C[C@@H](Nc1cc(Cl)cnc1C(N)=O)c1ccc(C(=O)N[C@@H](CC2CCCC2)C(=O)NC23CC(C2)C3)s1 [Compound 132, 3-{[(1R)-1-(5-{[(1S)-1-({bicyclo[1.1.1]pentan-1-yl}carbamoyl)-2-cyclopentylethyl]carbamoyl}thiophen-2-yl)ethyl]amino}-5-chloropyridine-2-carboxamide] | 76
12 | Cc1ncc(Cl)cc1N[C@@H](C)c1ccc(C(=O)N[C@@H](CC2CCCC2)C(=O)Nc2ccc3c(c2)N(C)CCC3)s1 [Compound 167, (2S)-2-({5-[(1S)-1-[(5-chloro-2-methylpyridin-3-yl)amino]ethyl]thiophen-2-yl}formamido)-3-cyclopentyl-N-(1-methyl-1,2,3,4-tetrahydroquinolin-7-yl)propanamide] | 11
13 | Cc1ncc(Cl)cc1N[C@@H](C)c1ccc(C(=O)N[C@@H](CC2CCCC2)C(=O)N[C@H]2C[C@H](C)C2)s1 [Compound 114, (2S)-2-({5-[(1S)-1-[(5-chloro-2-methylpyridin-3-yl)amino]ethyl]thiophen-2-yl}formamido)-3-cyclopentyl-N-[(1s,3r)-3-methylcyclobutyl]propanamide] | 6
14 | CC(Nc1cc(Cl)cnc1C(C)(C)C#N)c1ccc(C(=O)N[C@@H](CC2CCCC2)C(=O)NC2CC2)s1 (some centres unmarked) [Compound 192] | 408
15 | Cc1ncc(Cl)cc1N[C@@H](C)c1ccc(C(=O)N[C@@H](CC2CCCC2)C(=O)Nc2cc[nH]n2)s1 [Compound 155, (2S)-2-({5-[(1S)-1-[(5-chloro-2-methylpyridin-3-yl)amino]ethyl]thiophen-2-yl}formamido)-3-cyclopentyl-N-(1H-pyrazol-3-yl)propanamide] | 7
16 | Cc1ncc(Cl)cc1NC(Cn1cccn1)c1ccc(C(=O)N[C@@H](CC2CCCC2)C(=O)NC2CC2)s1 (stereo partly drawn) [Compound 191, (2S)-2-[(5-{1-[(5-chloro-2-methylpyridin-3-yl)amino]-2-(1H-pyrazol-1-yl)ethyl}thiophen-2-yl)formamido]-3-cyclopentyl-N-cyclopropylpropanamide] | 13
17 | Cc1ncc(Cl)cc1N[C@@H](C)c1ccc(C(=O)N[C@@H](CC2CCC3CC32)C(=O)NC23CC(C#N)(C2)C3)s1 (stereo partly drawn) [Compound 111, (2S)-3-{bicyclo[3.1.0]hexan-2-yl}-2-({5-[(1S)-1-[(5-chloro-2-methylpyridin-3-yl)amino]ethyl]thiophen-2-yl}formamido)-N-{3-cyanobicyclo[1.1.1]pentan-1-yl}propanamide] | 12
18 | Cc1ncc(Cl)cc1N[C@@H](C)c1ccc(C(=O)N[C@@H](CC2CC3CC3C2)C(=O)Nc2cnn(C)c2)s1 (stereo partly drawn) [Compound 179, (2S)-3-{bicyclo[3.1.0]hexan-3-yl}-2-({5-[(1S)-1-[(5-chloro-2-methylpyridin-3-yl)amino]ethyl]thiophen-2-yl}formamido)-N-(1-methyl-1H-pyrazol-4-yl)propanamide] | 4
19 | Cc1cc(NC(=O)[C@H](CC2CCCC2)NC(=O)c2cnc([C@H](C)Nc3cccc(Cl)c3)s2)cc(C)n1 [Compound 128, (2S)-2-({2-[(1S)-1-[(3-chlorophenyl)amino]ethyl]-1,3-thiazol-5-yl}formamido)-3-cyclopentyl-N-(2,6-dimethylpyridin-4-yl)propanamide] | 3910
20 | Cc1ncc(Cl)cc1N[C@@H](C)c1ccc(C(=O)N[C@@H](CC2CCCC2)C(=O)N[C@H]2C[C@H](C#N)C2)s1 [Compound 211, (2S)-2-({5-[(1S)-1-[(5-chloro-2-methylpyridin-3-yl)amino]ethyl]thiophen-2-yl}formamido)-3-cyclopentyl-N-[(1r,3r)-3-cyanocyclobutyl]propanamide] | 10
